Measurements published in paper PMC8513079 (Molecules, 2021).
Entries after “also recorded” stand apart in the source; their conditions may differ. Read-outs that look alike come from different tables or passages of the source.

Assays:
[1] = target: T1, MOR/DOR heteromer (Halotag-MOR/T7-tag-DOR) in HEK293 cells (Homo sapiens, UniProt P35372+P41143); assay: cADDis cAMP assay, MOR/DOR heteromer; type: cell-based
T1 construct: HaloTag; T7-tag; expressed in transfected cells

[2] = target: T2, DOR (T7-tag-DOR) in HEK293 cells (Homo sapiens, UniProt P41143); assay: cADDis cAMP assay, DOR; type: cell-based
T2 construct: T7-tag; expressed in transfected cells
T2 sequence (P41143 whole entry): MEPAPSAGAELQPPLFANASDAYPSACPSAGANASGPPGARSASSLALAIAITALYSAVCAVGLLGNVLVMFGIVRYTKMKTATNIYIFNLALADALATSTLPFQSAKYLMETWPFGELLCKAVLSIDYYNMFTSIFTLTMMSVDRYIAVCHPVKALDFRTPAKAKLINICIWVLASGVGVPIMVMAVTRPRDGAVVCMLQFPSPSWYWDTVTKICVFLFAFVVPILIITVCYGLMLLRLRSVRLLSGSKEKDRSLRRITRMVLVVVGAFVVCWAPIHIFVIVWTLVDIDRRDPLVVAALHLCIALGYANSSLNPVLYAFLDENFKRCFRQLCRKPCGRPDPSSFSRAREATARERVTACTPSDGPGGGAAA

[3] = test system: DOR (CHO-K1 OPRD1); assay: PathHunter β-arrestin recruitment assay, DOR; type: cell-based; conditions: 37 °C; for β-arrestin recruitment, DOR, in words: PathHunter, compared with 10^−5 M SNC-80, 90 min, n = 3–6
[4] = target: T3, KOR (Halotag-KOR) in HEK293 cells (Homo sapiens, UniProt P41145); assay: CellKey impedance assay, antagonist mode, KOR; type: cell-based; conditions: combined with U-50488H (10^−11–10^−5 M); negative control at 10^−5 concentration; n = 3–4
T3 construct: HaloTag; expressed in transfected cells
T3 sequence (P41145 whole entry): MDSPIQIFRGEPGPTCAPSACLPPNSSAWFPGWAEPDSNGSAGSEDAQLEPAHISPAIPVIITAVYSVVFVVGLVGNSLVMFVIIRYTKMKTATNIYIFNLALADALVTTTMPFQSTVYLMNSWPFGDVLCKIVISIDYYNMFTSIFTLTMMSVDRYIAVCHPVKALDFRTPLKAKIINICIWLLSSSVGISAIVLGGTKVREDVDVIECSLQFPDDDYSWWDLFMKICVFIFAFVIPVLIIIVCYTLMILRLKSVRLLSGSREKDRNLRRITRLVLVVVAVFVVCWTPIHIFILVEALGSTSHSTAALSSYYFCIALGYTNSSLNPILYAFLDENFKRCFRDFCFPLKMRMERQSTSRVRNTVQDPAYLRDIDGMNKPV

[5] = test system: DOR; conditions: rubiscolin-5 compared with rubiscolin-6; cited from earlier work
Text: (§1) In view of the results of our cAMP assay, rubiscolins can be considered DOR-biased agonists, consistent with previous reports. […] Indeed, there is a structural ...

[6] = target: T3, KOR (Halotag-KOR) in HEK293 cells; assay: cell-based; conditions: HEK293, read-out: Emax, cAMP assay, KOR (Table 1)
[7] = test system: DOR; assay: G-protein bias at DOR, cADDis cAMP versus PathHunter β-arrestin; type: cell-based; conditions: concluded from cADDis cAMP and PathHunter β-arrestin assays
[8] = target: MOR (Halotag-MOR) in HEK293 cells (Homo sapiens, UniProt P35372); assay: cell-based; type: cell-based
Chain of MOR (Halotag-MOR) in HEK293 cells (P35372 whole entry): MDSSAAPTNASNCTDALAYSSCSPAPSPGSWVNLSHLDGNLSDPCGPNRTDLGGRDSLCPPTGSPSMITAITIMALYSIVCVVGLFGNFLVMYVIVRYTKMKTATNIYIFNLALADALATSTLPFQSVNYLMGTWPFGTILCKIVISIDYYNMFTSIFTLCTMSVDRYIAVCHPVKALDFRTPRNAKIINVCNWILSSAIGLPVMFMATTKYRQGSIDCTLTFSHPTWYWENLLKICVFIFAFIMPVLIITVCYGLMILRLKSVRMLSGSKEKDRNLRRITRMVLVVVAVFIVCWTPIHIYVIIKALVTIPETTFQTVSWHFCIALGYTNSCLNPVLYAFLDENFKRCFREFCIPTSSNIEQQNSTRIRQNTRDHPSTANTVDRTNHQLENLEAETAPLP

[9] = rubiscolin-6 versus rubiscolin-5; cited from earlier work
Text: as §1

[10] = test system: receptor; conditions: rubiscolin-6 versus rubiscolin-5; cited from earlier work
Text: as §1

[11] = test system: MOR (OPRM1); assay: PathHunter β-arrestin recruitment assay, MOR; type: cell-based; conditions: compared with 10^−5 M DAMGO, 90 min, 37 °C, n = 3–6
[12] = HEK293, read-out: Emax, cAMP assay, DOR (Table 1)
[13] = HEK293, read-out: Emax, cAMP assay, DOR (Table 2)
[14] = HEK293, read-out: Emax, cAMP assay, MOR (Table 1)
[15] = HEK293, read-out: Emax, cAMP assay, MOR (Table 2)
[16] = cADDis cAMP assay, HEK293 T7-tag-DOR

T1 sequence (P35372 whole entry): as above
T1 sequence (P41143 whole entry): as the sequence (P41143 whole entry) above

Row | Compound | EC50 [2] [nM] | Emax [2, 12] [%] | Emax [2, 13] [%] | β-arrestin recruitment, DOR, in words [3] | Emax [6] [%] | G-protein bias / agonist type at DOR [7] | Emax [8, 14] [%] | Emax [8, 15] [%] | effect through G-protein-mediated pathway (cAMP), DOR, in words [2, 16] | other results
1 | C[C@@H](NC(=O)[C@@H](N)Cc1ccc(O)cc1)C(=O)NCC(=O)N(C)[C@@H](Cc1ccccc1)C(=O)NCCO [DAMGO, D-Ala(2)-N-Me-Phe(4)-Gly-ol(5)-enkephalin, reference compound] |  |  |  |  |  |  |  |  |  | Emax ([1]; relative to 10^−5 M ML335, cADDis sensor, 50 μM forskolin, 28 °C, 40 min reading, 10^−11–10^−5 M, means ± S.E.M. (n = 6–8), Figure 6, + p < 0.05 vs ML335, read-out: Emax, cAMP assay, MOR/DOR (Table 2)): 91.1 ± 5.4%; Emax ([2]; HEK293; read-out: Emax, cAMP assay, DOR (Table 1)): 90.9 ± 8.9%; Emax ([2]; HEK293; read-out: Emax, cAMP assay, DOR (Table 2)): 90.9 ± 8.9%
2 | C=CCN1C[C@H](C)N([C@H](c2ccc(C(=O)N(CC)CC)cc2)c2cccc(OC)c2)C[C@H]1C [SNC-80, (+)-4-[(aR)-a-((2S,5R)-4-allyl-2,5-dimethyl-1-piperazinyl)-3-methoxybenzyl]-N,N-diethylbenzamide, reference compound] |  |  |  |  |  |  |  |  |  | Emax, β-arrestin recruitment, DOR ([3]; relative to 10^−5 M SNC-80, 90 min stimulation, luminescence, 10^−11–10^−5 M, means ± S.E.M. (n = 3–6), Figure 5B): 100.0 ± 2.6%
3 | Oc1ccc2c3c1O[C@H]1c4[nH]c5c(c4C[C@@]4(O)[C@@H](C2)N(CC2CC2)CC[C@]314)C[C@@]1(O)[C@H]2Cc3ccc(O)c4c3[C@@]1(CCN2CC1CC1)[C@H]5O4 [norBNI, norbinaltorphimine] |  |  |  |  |  |  |  |  |  | antagonistic effect, CellKey, KOR [4]: completely suppressed the agonistic effects of the positive control
4 | H-YPLDL-OH [Rubiscolin-5, H-Tyr-Pro-Leu-Asp-Leu-OH] | 501 | 78.4 ± 6.7 | 78.4 ± 6.7 | the most irrelevant with regard to the activity through the β-arrestin-mediated pathway; also recorded: equivalently negligible | 9.6 ± 9 | G-protein-biased DOR full agonists without affecting MOR and KOR | 27.5 ± 5.5 | 27.5 ± 5.5 |  | G-protein bias (bias factor), previous study [5]: more G-protein-biased than rubiscolin-6
5 | H-YPLDLF-OH [Rubiscolin-6, H-Tyr-Pro-Leu-Asp-Leu-Phe-OH] | 316 | 103 ± 4.1 | 103 ± 4.1 | the most irrelevant with regard to the activity through the β-arrestin-mediated pathway; also recorded: equivalently negligible | 39.8 ± 20.5 | G-protein-biased DOR full agonists without affecting MOR and KOR | 14.3 ± 3.2 | 14.3 ± 3.2 | robust effect on DOR at 10^−5 concentration; also recorded: relatively stronger than rubiscolin-5 in activating the G-protein-mediated intracellular pathway | potency in analgesia relative to rubiscolin-5 [9]: about twice as potent in analgesia as rubiscolin-5; receptor affinity relative to rubiscolin-5 [10]: higher receptor affinity
6 | ML335 [reference compound] |  |  |  | partially recruited β-arrestin through both MOR and DOR |  |  |  |  | full agonist for both MOR and DOR | pEC50, cAMP assay, MOR/DOR (Table 2) ([1]; -LogEC50, means ± S.E.M. (n = 6–8), Figure 6, + p < 0.05 vs ML335): 7.0 ± 0.1 M; effect through G-protein-mediated pathway (cAMP), MOR/DOR heteromer, in words ([1]; cADDis cAMP assay, compared with ML335): full agonist of MOR/DOR; Emax, cAMP assay, MOR/DOR (Table 2) ([1]; relative to 10^−5 M ML335, cADDis sensor, 50 μM forskolin, 28 °C, 40 min reading, 10^−11–10^−5 M, means ± S.E.M. (n = 6–8), Figure 6, + p < 0.05 vs ML335): 100.0 ± 4.2%; β-arrestin recruitment, MOR, in words [11]: partially recruited β-arrestin through both MOR and DOR; pEC50, cAMP assay, DOR (Table 2) ([2]; -LogEC50; HEK293 T7-tag-DOR; means ± S.E.M. (n = 6–8), Figure 6; # p < 0.05 vs SNC-80): 7.5 ± 0.1 ^# M; Emax, cAMP assay, DOR (Table 2) ([2]; relative to 10^−5 M SNC-80; HEK293 T7-tag-DOR; forskolin-stimulated; 10^−11–10^−5 M; means ± S.E.M. (n = 6–8), Figure 6; # p < 0.05 vs SNC-80): 111.6 ± 3.6%; Emax, cAMP assay, MOR (Table 2) [8]: 112.5 ± 5.3%; effect through G-protein-mediated pathway (cAMP), MOR, in words [8]: full agonist for both MOR and DOR; pEC50, cAMP assay, MOR (Table 2) [8]: 7.6 ± 0.1 M
